Assay results from patent publication US9428487B2, “Heteroaromatic amides and thioamides as pesticides” (Bayer Intellectual Property GmbH, priority 2008, dated 2016).
Read-outs that look alike come from different tables or passages of the source.

Legend:
[1] = Determination of log P values by HPLC on reversed-phase column (formic acid method); format: physicochemical; settings: reversed-phase C 18, acidic range (pH 3.4), formic acid eluents, 55° C., read-out: logP (HCOOH)
Experimental: 1) Description of Method for Determining the Log P Values (Formic Acid Method)
The log P values reported in the table were determined according to EEC-Directive 79/831 Annex V.A8 by HPLC (High Performance Liquid Chromatography) on a reversed-phase column (C 18). […]
Eluent A: acetonitrile+1 ml of formic acid/liter. Eluent B: water+0.9 ml of formic acid/liter.
Gradient: from 10% eluent A/90% eluent B to 95% eluent A/5% eluent B in 4.25 min
The calibration was effected with unbranched alkan-2-ones (with 3 to 16 carbon atoms), whose log P values are known (determination of the log P values on the basis of the retention times by linear interpolation between two successive alkanones). The lambda-max values were determined with reference to the UV spectra from 200 nm to 400 nm in the maxima of the chromatographic signals.

[2] = tested on: green peach aphid (Myzus persicae); assay: Myzus test; format: in vivo; settings: read-out: efficacy (aphids killed)
Experimental: • Solvent: 78.0 parts by weight of acetone • 1.5 parts by weight of dimethylformamide • Emulsifier: 0.5 part by weight of alkylaryl polyglycol ether
To produce an appropriate active ingredient formulation, 1 part by weight of active ingredient is mixed with the amounts of solvent and emulsifier specified and the concentrate is diluted to the desired concentration with emulsifier-containing water.
Chinese cabbage leaf slices (Brassica pekinensis) infested by all stages of the green peach aphid (Myzus persicae) are sprayed with an active ingredient formulation of the desired concentration.
After the desired time, the efficacy in % is determined 100% means that all aphids have been killed; 0% means that no aphids have been killed.

[3] = reversed-phase HPLC column (C 18), pH 3.4, HPLC
[4] = application rate 500 g/ha, spray on Chinese cabbage leaf slices

Row | chromatographic logP [1, 3] | Compound | pest or weed control at 500 g/ha [2, 4] [%] | chromatographic logP ([1]; HPLC) | pest or weed control at 500 g/ha ([2]; in Brassica rapa) [%]
1 | 0.8 | Cc1nc(-c2cccnc2)sc1C(=O)N(C)CC(=O)N(C)C [Compound 133] | ≥ 70 |  | 
2 | 0.41 | CN(Cc1ccccn1)C(=O)c1cnc(-c2cccnc2)s1 [Compound 134] | ≥ 70 |  | 
3 | 0.46 | Cc1nc(-c2cccnc2)sc1C(=O)NCc1cccnc1 [Compound 135] | ≥ 70 |  | 
4 | 1.17 | CN(CCF)C(=O)c1cnc(-c2cccnc2)s1 [Compound 136] | ≥ 70 |  | 
5 | 1.28 | CCN(CC#N)C(=O)c1cnc(-c2cccnc2)s1 [Compound 137] | ≥ 70 |  | 
6 | 1.09 | COC(=O)C[n+]1cccc(-c2nc(C)c(C(=O)NCC(F)(F)F)s2)c1 [Compound 138] | ≥ 70 |  | 
7 | 2.47 | CC#CCN(CC(F)(F)F)C(=O)c1sc(-c2cccnc2)nc1C [Compound 139] | ≥ 70 |  | 
8 | 1.93 | Cc1nc(-c2cccnc2)sc1C(=O)N(CC#N)C(=O)C1(F)CC1 [Compound 140] | ≥ 70 |  | 
9 | 2.1 | CCOC(=O)C(CC)N(C)C(=O)c1sc(-c2cccnc2)nc1C (centres unmarked) [Compound 141] | ≥ 70 |  | 
10 | 1.56 | Cc1nc(-c2cccnc2)sc1C(=O)N(CC#N)C(C)C [Compound 142] | ≥ 70 |  | 
11 | 1.42 | CON(C)C(=O)c1sc(-c2cccnc2)nc1C [Compound 143] | ≥ 70 |  | 
12 | 1.45 | CCOC1(NC(=O)c2sc(-c3cccnc3)nc2C)CC1 [Compound 144] | ≥ 70 |  | 
13 | 1.38 | Cc1nc(-c2cccnc2)sc1C(=O)NCc1cc(C)n(C)n1 [Compound 145] | ≥ 70 |  | 
14 | 2.48 | Cc1nc(-c2cccnc2)sc1C(=O)NC(C(C)C)C(F)(F)F (centres unmarked) [Compound 146] | ≥ 70 |  | 
15 | 1.45 | Cc1nc(-c2cccnc2)sc1C(=O)NCc1ncc(Cl)cn1 [Compound 147] | ≥ 70 |  | 
16 | 1.38 | CSCCN(C)C(=O)c1cnc(-c2cccnc2)s1 [Compound 148] | ≥ 70 |  | 
17 | 2.48 | Cc1nc(-c2cccnc2)sc1C(=O)NC1CCCC(C(F)(F)F)C1 (centres unmarked) [Compound 149] | ≥ 70 |  | 
18 | 1.19 | Cc1nc(-c2cccnc2)sc1C(=O)NCCC#N [Compound 150] | ≥ 70 |  | 
19 | 1.01 | Cc1nc(-c2cccnc2)sc1C(=O)NC(C)c1nn(C)c(=O)n1C (centres unmarked) [Compound 151] | ≥ 70 |  | 
20 | 2.95 | Cc1nc(-c2cccnc2)sc1C(=O)NC1CC(C(F)(F)F)CC(C(F)(F)F)C1 (centres unmarked) [Compound 152] | ≥ 70 |  | 
21 | 2.43 | Cc1nc(-c2cccnc2)sc1C(=O)NCC1CCCCC1 [Compound 153] | ≥ 70 |  | 

Row | chromatographic logP [1, 3] | Compound | pest or weed control at 500 g/ha [2, 4] [%] | chromatographic logP ([1]; HPLC) | pest or weed control at 500 g/ha ([2]; in Brassica rapa) [%]
22 | 1.21 | CC(c1ccccn1)N(C)C(=O)c1cnc(-c2cccnc2)s1 (centres unmarked) [Compound 154] | ≥ 70 |  | 
23 | 1.48 | Cc1nc(-c2cccnc2)sc1C(=O)NCC1COC(C)(C)O1 (centres unmarked) [Compound 155] | ≥ 70 |  | 
24 | 1.66 | C#CC(C)(C)NC(=O)c1sc(-c2cccnc2)nc1C [Compound 156] | ≥ 70 |  | 
25 | 1.69 | Cc1nc(-c2cccnc2)sc1C(=O)NC(C)(C#N)C1CCCO1 (centres unmarked) [Compound 157] | ≥ 70 |  | 
26 | 1.48 | C#CC(C)ONC(=O)c1sc(-c2cccnc2)nc1C (centres unmarked) [Compound 158] | ≥ 70 |  | 
27 | 1.26 | Cc1nc(-c2cccnc2)sc1C(=O)N(C)CC1COCCO1 (centres unmarked) [Compound 159] | ≥ 70 |  | 
28 | 1.27 | Cc1nc(-c2cccnc2)sc1C(=O)NCC1(C)CCCO1 (centres unmarked) [Compound 160] | ≥ 70 |  | 
29 | 1.26 | Cc1cc(CN(C)C(=O)c2cnc(-c3cccnc3)s2)nn1C [Compound 161] | ≥ 70 |  | 
30 | 1.78 | Cc1nc(-c2cccnc2)sc1C(=O)N(C)CC(=O)OC(C)C [Compound 162] | ≥ 70 |  | 
31 | 1.1 | Cc1nc(-c2cccnc2)sc1C(=O)N(C)CCC#N [Compound 163] | ≥ 70 |  | 
32 | 1.52 | Cc1cc(CN(C)C(=O)c2sc(-c3cccnc3)nc2C)no1 [Compound 164] | ≥ 70 |  | 
33 | 1.06 | Cc1nc(C)n(C(C)CNC(=O)c2sc(-c3cccnc3)nc2C)n1 (centres unmarked) [Compound 165] | ≥ 70 |  | 
34 | 1.44 | Cc1nc(CN(C)C(=O)c2cnc(-c3cccnc3)s2)c(C)o1 [Compound 166] | ≥ 70 |  | 
35 | 0.97 | Cc1nc(-c2cccnc2)sc1C(=O)NC1(c2ccccn2)CC1 [Compound 167] | ≥ 70 |  | 
36 | 1.89 | Cc1nc(-c2cccnc2)sc1C(=O)NC(C)C(F)(F)F (centres unmarked) [Compound 168] | ≥ 70 |  | 
37 | 0.69 | Cc1nc(-c2cccnc2)sc1C(=O)NCc1ccncc1 [Compound 169] | ≥ 70 |  | 
38 | 1.68 | Cc1nc(-c2cccnc2)sc1C(=O)N(C)CC1CC1 [Compound 170] | ≥ 70 |  | 
39 | 2.3 | O=C(NC(C(F)(F)F)C(F)(F)F)c1cnc(-c2cccnc2)s1 [Compound 171] | ≥ 70 |  | 
40 | 1.63 | Cc1nc(-c2cccnc2)sc1C(=O)NCc1nc(C2CC2)no1 [Compound 172] | ≥ 70 |  | 
41 | 1.5 | CCON(C)C(=O)c1cnc(-c2cccnc2)s1 [Compound 173] | ≥ 70 |  | 
42 | 1.44 | COC(C)(CNC(=O)c1sc(-c2cccnc2)nc1C)OC [Compound 174] | ≥ 70 |  | 

Row | chromatographic logP [1, 3] | Compound | pest or weed control at 500 g/ha [2, 4] [%] | chromatographic logP ([1]; HPLC) | pest or weed control at 500 g/ha ([2]; in Brassica rapa) [%]
43 | 1.02 | CC(=O)CNC(=O)c1sc(-c2cccnc2)nc1C [Compound 175] | ≥ 70 |  | 
44 | 1.19 | CCc1nccc(CNC(=O)c2cnc(-c3cccnc3)s2)n1 [Compound 176] | ≥ 70 |  | 
45 |  | Cc1nc(-c2cccnc2)sc1C(=O)NCCCl [Compound 177] |  | 1.41 | ≥ 70
46 | 1.65 | CCOC(=O)CN(OC)C(=O)c1cnc(-c2cccnc2)s1 [Compound 178] | ≥ 70 |  | 
47 | 1.68 | O=C(NCc1cccc(Br)n1)c1cnc(-c2cccnc2)s1 [Compound 179] | ≥ 70 |  | 
48 | 1.33 | CN(CC1CCCO1)C(=O)c1cnc(-c2cccnc2)s1 (centres unmarked) [Compound 180] | ≥ 70 |  | 
49 | 2.58 | CCCC(NC(=O)c1sc(-c2cccnc2)nc1C)C(F)(F)F (centres unmarked) [Compound 181] | ≥ 70 |  | 
50 | 2.24 | Cc1nc(-c2cccnc2)sc1C(=O)NC(C)(C)C(F)(F)F [Compound 182] | ≥ 70 |  | 
51 | 1.53 | CCN(OC)C(=O)c1cnc(-c2cccnc2)s1 [Compound 183] | ≥ 70 |  | 
52 | 1.05 | Cc1nc(-c2cccnc2)sc1C(=O)NCC#N [Compound 184] | ≥ 70 |  | 
53 | 2.91 | COc1ccc(CN(CC(F)(F)F)C(=O)c2sc(-c3cccnc3)nc2C)cc1 [Compound 185] | ≥ 70 |  | 
54 | 1.77 | Cc1ccc(CNC(=O)c2cnc(-c3cccnc3)s2)o1 [Compound 186] | ≥ 70 |  | 
55 | 1.64 | CCN(CC1CCCO1)C(=O)c1sc(-c2cccnc2)nc1C (centres unmarked) [Compound 187] | ≥ 70 |  | 
56 | 1.45 | COCN(CC1COCCO1)C(=O)c1sc(-c2cccnc2)nc1C (centres unmarked) [Compound 188] | ≥ 70 |  | 
57 | 2.13 | Cc1nc(-c2cccnc2)sc1C(=O)NCC(F)(F)C(F)(F)F [Compound 189] | ≥ 70 |  | 
58 | 1.77 | CCC(=O)N(CC#N)C(=O)c1cnc(-c2cccnc2)s1 [Compound 190] | ≥ 70 |  | 
59 | 1.53 | CSC[C@H](C)NC(=O)c1cnc(-c2cccnc2)s1 [Compound 191] | ≥ 70 |  | 
60 | 1.59 | CN(CC(F)(F)F)C(=O)c1cnc(-c2cccnc2)s1 [Compound 192] | ≥ 70 |  | 
61 | 1.21 | Cc1nc(-c2cccnc2)sc1C(=O)NC1(c2ncccn2)CC1 [Compound 193] | ≥ 70 |  | 
